# In patent US20230321043A1, “COMPOUNDS HAVING PSEUDOMONAS ANTI-BIOFILM PROPERTIES” (Københavns Universitet, priority 2020, published 2023):
# Tests used:
# Assay type in all cases: cell-based, Pseudomonas aeruginosa
# [1] = test system: c-di-GMP level of P. aeruginosa ΔwspFΔpelΔpsl/pCdrA-gfp; assay: microbe, parasite or virus in culture
# Experimental: The ΔwspF mutant overproduces c-di-GMP and the ΔpelΔpsl mutations renders the bacteria deficient in exopolysaccharide production, which keeps the growing bacteria in the planktonic mode.
# The reduction of total cellular c-di-GMP level was determined as follows. To evaluate the impact of the various compounds on the c-di-GMP level of P. aeruginosa ΔwspFΔpelΔpsl/pCdrA-gfp, 20 hour old cultures of the strain were diluted 100 fold in microtiter plate wells (Nunc) containing […] aliquots of ABTrace medium supplemented with 0.2% glucose, 0.5% casamino acids, 60 μg/ml gentamicin, 1 μM FeCl3, 1% DMSO, and concentrations of compounds as indicated.
# Subsequently the microtiter plates were incubated at 37° C. and 440 RPM in a TECAN reader (Infinite F200 PRO), and corresponding values of cell density (OD600) and GFP fluorescence were measured every 20 minutes for 24 hours. The reduction values indicated in the tables are calculated as fluorescence values divided by optical density at a time point where this value reached a plateau.
# The resulting microtiter trays were incubated at 37° C. at 440 RPM in a TECAN reader (Infinite F200 PRO), and corresponding values of GFP flourescence (FU) and cell density (OD600) were measured every 20 minutes for 24 hours. […] In FIG. 3A and 3B, means and standard deviations (bars) represents 3 biological replicates (n=3).
# wt P. aeruginosa biofilm = assay: dispersal of 8 hour old biofilm, crystal violet staining
# Experimental: Using a 96 well microtiter tray format, a 20 hour old culture of wt P. aeruginosa was diluted 1000 fold into 100 μL ABtrace media aliquots supplemented with 0.2% glucose, 0.5% Cas amino acids and 1 μM FeCl3. The resulting microtiter trays were sealed with an air permeable lid and the biofilm cultures were incubated at 37° C. on a rotary shaker at 160 RPM.
# After this, the culture supernatants were discarded and the remaining biomass was stained with crystal violet (Groizeleau et al. 2016). Finally, the amount of Crystal violet bound to the biofilm present in each well was plotted as a function of H6-335-P1, H6-335, H6-335-SAR compound 26 and H6-335- SAR compound 25 in the following concentrations: 100 μM, 50 μM, 25 μM, 12 μM or 0 μM (FIG. 4D). Means and standard deviations (bars) in FIG. 4D represents 5 biological replicates (n=5)
# [2] = test system: P. aeruginosa ΔbifAΔwspF mutant; assay: biofilm formation of bifA knockout, crystal violet; conditions: 100 μM, 16 hours of growth, FIG. 6B left
# Experimental: Biofilm quantification was done using a 96 well microtiter platform where 20 hour old cultures of the deletion mutant of P. aeruginosa PA01 (ΔwspF) and its isogenic bifA deletion mutant (ΔbifA-) were diluted […] into 100 μL ABTrace media aliquots (Pamp and Tolker-Nielsen, 2007) supplemented with 0.2% glucose, 0.5% casa amino acids, 1 μM FeCl3, 0.2% DMSO and either 100 μM or 0 μM of H6-335-P1. The resulting cultures were incubated at 37° C. and 160 RPM, and following 16 hours of growth the amounts of biofilm were quantified by the use of crystal violet staining.
smiles,measurement,setting,value
"N=C1NN=C(N)/C1=N/Nc1ccccc1F [H6-335-P1, 4-[(2-fluorophenyl) hydrazinylidene]pyrazole-3,5-diamine]",reduction of the fluorescence output of the c-di-GMP monitor cultures,"[1]; 100 μM, compared with control cultures with 1% DMSO",80%
same,inhibition at 100 µM,"[1]; Pseudomonas aeruginosa, read-out: Reduction of total cellular c-di-GMP level",80%
same,dispersal of an 8 hour old biofilm,"wt P. aeruginosa biofilm; 100 μM, within a 2 hours period",88%
same,rank of biofilm dispersing potency among the four tested compounds,"wt P. aeruginosa biofilm; 12 to 100 μM, two hours of dispersal, FIG. 4D",most potent biofilm dispersing compound
same,response of biofilm formation of ΔbifAΔwspF mutant,[2],no longer responded to the presence of H6-335-P1
